# Assay results taken from ChEMBL document CHEMBL1201862, “PubChem BioAssay data set” (2004).
# Active and inactive are the calls of the source. Rule as the data show it, for most assays here: actives have a measured EC50 and inactives only a lower limit.
# Columns and labels:
# [1] = biological target: T1, High affinity choline transporter 1 (Homo sapiens, UniProt Q9GZV3); experiment: CHT inhibitors, dose response, cell-based, 5-point CRC, membrane potential dye (AID 504840); type: functional
# T1 sequence (Q9GZV3 whole entry): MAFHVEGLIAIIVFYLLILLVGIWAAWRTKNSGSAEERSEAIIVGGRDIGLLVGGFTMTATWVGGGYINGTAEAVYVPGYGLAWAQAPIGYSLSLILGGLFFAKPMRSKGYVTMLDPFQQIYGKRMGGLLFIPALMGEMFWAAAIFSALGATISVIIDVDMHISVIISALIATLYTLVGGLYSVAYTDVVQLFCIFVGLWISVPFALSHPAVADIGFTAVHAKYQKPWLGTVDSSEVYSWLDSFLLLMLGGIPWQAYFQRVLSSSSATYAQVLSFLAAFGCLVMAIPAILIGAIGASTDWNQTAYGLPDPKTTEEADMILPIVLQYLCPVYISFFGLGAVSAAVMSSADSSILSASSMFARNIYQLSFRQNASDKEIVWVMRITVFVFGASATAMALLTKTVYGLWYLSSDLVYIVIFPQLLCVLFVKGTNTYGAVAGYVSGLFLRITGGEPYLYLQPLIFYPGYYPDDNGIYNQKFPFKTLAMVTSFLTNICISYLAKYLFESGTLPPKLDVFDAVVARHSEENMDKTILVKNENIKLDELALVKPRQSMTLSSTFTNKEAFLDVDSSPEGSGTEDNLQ
# cells [2] = type: functional, cell-based
# cells [3] = type: functional, cell-based; remark: listed apart in the source
# [4] = THP-1 cell cytotoxicity, dose response, cytotoxicity control for non-replicating M. tuberculosis project (AID 489025); type: functional
# cells [5] = type: functional
# H9c2 = experiment: cells; type: functional, cell-based; settings: Rattus norvegicus, H9c2, Myocardium;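 also: confirmatory concentration-response retest of ultra-high-throughput screening hits for modulation of myocardial damage; cell death induced by hydrogen peroxide oxidative stress; compound pretreatment for 60 min then peroxide exposure for 2 h; potency is for protecting the cells against peroxide damage rather than for killing them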
# [6] = Luminescence Cell-Based Dose Confirmation HTS to Identify Activators of 5'UTR Stem-Loop Driven Alpha-Synuclein mRNA Translation in H4 Neuroglioblastoma Cells. [Related pubchem assays: 1829 (Project Summary), 1814 (Primary HTS)]; type: functional
# [7] = Luminescence Cell-Based Dose Response HTS to Identify Activators of Luciferase Translation or Activity in H4 […] Cells. [Related pubchem assays: 1829 (Project Summary), 1814 (Primary HTS)]; type: functional
# H4 = experiment: Luminescence Cell-Based Dose Response HTS to Identify Activators of 5'UTR Stem-Loop Driven Prion Protein mRNA Translation in H4 Neuroglioblastoma Cells. [Related pubchem assays: 1829 (Project Summary), 1814 (Primary HTS)]; type: functional; settings: Homo sapiens
# Paired box protein Pax-8 = Paired box protein Pax-8 (Homo sapiens, UniProt Q06710); experiment: inhibitors of PAX8-driven TPO luciferase reporter, dose response, RMG-I cells, cherry-pick (AID 687027); type: functional, cell-based;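 also: luciferase reporter driven by Pax8 target thyroperoxidase promoter measured by SteadyGlo luminescence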
# Sequence of Paired box protein Pax-8 (Q06710 whole entry): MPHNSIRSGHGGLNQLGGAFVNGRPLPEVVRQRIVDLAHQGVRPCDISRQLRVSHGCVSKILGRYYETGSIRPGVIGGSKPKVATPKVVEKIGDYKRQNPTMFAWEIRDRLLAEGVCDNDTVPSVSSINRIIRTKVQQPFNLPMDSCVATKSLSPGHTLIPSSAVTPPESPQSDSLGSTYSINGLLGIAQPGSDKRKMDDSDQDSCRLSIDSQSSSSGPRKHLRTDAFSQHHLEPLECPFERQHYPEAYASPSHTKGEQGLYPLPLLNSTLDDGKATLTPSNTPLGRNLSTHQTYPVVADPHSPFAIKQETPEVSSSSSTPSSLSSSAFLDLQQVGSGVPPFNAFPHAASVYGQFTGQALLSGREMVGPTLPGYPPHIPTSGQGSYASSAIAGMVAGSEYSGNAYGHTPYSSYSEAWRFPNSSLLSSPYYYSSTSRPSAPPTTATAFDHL
# [8] = cytotoxicity in OVCAR8 ovarian cancer cells, dose response, PAX8 project, cell-based, plate reader, dry powder samples (AID 743197); type: functional; settings: OVCAR-8
# [9] = biological target: T2, Carboxy-terminal domain RNA polymerase II polypeptide A small phosphatase 1 (Homo sapiens, UniProt Q9GZU7); experiment: inhibitors of CTDSP1, concentration-response testing, biochemical assay, absorbance-based, actives from ultra-high-throughput screening (AID 540297); type: functional
# T2 sequence (Q9GZU7 whole entry): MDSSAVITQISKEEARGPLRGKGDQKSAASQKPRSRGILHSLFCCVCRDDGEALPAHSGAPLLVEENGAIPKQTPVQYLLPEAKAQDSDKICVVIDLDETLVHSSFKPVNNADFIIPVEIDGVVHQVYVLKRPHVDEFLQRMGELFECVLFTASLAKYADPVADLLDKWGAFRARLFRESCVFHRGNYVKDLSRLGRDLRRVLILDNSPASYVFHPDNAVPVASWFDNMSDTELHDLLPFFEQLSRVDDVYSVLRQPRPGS
# [10] = inhibitors of intracellular T. cruzi replication, confirmation, NIH3T3 host cells, beta-gal luminescence (AID 2044); type: functional, cell-based;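 also: intracellular parasites grown in NIH/3T3 mouse fibroblasts as host cells; luminescent beta-galactosidase reporter signal from transgenic T. cruzi replicating inside host cells; inhibitors lower the luminescence signal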
# [11] = cytotoxicity toward NIH3T3 fibroblasts, dose response, counter-screen, cell-based, ATP luminescence, mouse fibroblasts (AID 2010); type: functional;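 also: cells exposed to compound for about 90 hours before reading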
# Fatty acid synthase [12] = biological target: T3, Fatty acid synthase (Homo sapiens, UniProt P49327); experiment: FAS thioesterase domain inhibitors, dose response, biochemical, endpoint fluorescence intensity, uHTS hits (AID 624327); type: functional;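 also: fluorescence from hydrolysis of an O-methyl fluorescein acyl ester substrate by the enzyme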
# T3 sequence (P49327 whole entry, the tested form may be a part): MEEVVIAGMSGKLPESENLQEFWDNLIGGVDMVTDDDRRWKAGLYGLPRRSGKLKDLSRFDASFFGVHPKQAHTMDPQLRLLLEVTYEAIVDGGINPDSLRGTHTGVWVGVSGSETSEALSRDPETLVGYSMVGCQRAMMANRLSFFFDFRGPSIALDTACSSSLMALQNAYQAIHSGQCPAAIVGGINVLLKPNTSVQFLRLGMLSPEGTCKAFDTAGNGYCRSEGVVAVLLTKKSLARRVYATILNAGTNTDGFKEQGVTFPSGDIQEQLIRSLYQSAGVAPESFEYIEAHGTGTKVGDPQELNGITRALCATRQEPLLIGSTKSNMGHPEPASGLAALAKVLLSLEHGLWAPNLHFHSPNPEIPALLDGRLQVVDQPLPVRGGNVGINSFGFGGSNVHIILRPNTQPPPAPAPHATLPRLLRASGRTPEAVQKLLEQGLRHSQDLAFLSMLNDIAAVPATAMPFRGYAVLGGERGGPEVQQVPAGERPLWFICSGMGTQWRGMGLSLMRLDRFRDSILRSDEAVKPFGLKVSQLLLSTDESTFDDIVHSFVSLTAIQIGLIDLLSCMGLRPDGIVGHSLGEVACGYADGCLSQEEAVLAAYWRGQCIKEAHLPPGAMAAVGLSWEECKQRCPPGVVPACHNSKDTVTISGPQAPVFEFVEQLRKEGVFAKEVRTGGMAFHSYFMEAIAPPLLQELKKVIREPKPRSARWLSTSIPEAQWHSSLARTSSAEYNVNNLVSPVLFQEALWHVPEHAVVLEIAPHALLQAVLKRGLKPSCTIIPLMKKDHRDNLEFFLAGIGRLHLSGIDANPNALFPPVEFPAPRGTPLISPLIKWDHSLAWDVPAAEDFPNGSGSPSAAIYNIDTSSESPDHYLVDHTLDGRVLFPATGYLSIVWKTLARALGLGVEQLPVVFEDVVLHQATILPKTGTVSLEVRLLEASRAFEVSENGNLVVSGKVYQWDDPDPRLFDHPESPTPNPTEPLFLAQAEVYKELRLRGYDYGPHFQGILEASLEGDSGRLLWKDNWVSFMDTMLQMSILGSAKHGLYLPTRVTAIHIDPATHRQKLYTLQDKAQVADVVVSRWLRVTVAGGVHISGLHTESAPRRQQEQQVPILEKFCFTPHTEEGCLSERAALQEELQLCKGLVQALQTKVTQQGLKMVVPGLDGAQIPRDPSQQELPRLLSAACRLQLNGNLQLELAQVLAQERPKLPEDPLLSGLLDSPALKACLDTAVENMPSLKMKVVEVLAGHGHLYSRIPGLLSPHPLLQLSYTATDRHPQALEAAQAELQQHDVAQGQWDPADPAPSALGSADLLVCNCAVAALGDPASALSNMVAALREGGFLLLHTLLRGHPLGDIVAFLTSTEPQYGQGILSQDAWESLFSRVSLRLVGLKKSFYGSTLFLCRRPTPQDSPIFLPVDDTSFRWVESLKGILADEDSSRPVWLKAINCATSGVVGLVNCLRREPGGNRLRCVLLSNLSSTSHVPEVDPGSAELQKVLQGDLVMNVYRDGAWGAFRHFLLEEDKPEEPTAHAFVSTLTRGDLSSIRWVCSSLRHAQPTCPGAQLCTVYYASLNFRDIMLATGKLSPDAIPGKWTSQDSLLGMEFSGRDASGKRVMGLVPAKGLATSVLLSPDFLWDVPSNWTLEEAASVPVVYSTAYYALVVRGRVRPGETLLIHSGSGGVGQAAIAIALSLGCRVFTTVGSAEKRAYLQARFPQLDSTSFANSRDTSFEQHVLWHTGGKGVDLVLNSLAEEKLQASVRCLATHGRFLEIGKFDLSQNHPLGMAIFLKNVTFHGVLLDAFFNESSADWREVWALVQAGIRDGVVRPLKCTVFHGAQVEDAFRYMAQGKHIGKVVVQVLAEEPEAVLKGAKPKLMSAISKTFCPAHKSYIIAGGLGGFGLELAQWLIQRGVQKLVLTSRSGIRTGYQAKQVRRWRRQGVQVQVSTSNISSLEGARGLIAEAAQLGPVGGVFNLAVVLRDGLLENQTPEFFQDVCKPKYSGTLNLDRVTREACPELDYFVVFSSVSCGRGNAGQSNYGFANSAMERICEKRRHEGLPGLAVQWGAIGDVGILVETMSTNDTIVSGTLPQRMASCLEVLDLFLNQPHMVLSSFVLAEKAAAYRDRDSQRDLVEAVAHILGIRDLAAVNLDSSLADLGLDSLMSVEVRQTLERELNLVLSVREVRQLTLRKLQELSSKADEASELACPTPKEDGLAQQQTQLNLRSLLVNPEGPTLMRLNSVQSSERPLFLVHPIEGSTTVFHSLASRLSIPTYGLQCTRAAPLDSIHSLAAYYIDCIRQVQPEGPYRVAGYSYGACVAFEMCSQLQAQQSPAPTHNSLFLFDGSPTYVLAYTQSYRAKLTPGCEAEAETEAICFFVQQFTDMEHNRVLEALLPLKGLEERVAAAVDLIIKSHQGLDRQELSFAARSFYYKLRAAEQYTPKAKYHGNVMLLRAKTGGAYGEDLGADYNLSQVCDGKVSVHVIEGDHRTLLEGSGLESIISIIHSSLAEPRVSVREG
# Fatty acid synthase [13] = biological target: T3, Fatty acid synthase; experiment: FAS thioesterase domain inhibitors, dose response, biochemical, kinetic fluorescence intensity (AID 624326); type: functional;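 also: rate of fluorescence rise from hydrolysis of a fluorogenic O-methyl fluorescein ester substrate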
# [14] = system: Streptococcus sp. 'group A'; experiment: growth inhibition of control SK(-) GAS strain, dose response, counter-screen for streptokinase expression inhibitor project, luminescence, kanamycin, BacTiterGlo, confirmation (AID 1900); type: functional, organism-based
# Streptokinase A = biological target: T4, Streptokinase A (Streptococcus pyogenes serotype M1, UniProt P10520); experiment: S. pyogenes streptokinase expression inhibitors, potency, dose response, plasminogen activation absorbance, OD405 (AID 1914); type: functional, Streptococcus pyogenes M1 GAS;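 also: secreted streptokinase activity via plasminogen activation per viability signal from cell pellet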
# T4 sequence (P10520 whole entry): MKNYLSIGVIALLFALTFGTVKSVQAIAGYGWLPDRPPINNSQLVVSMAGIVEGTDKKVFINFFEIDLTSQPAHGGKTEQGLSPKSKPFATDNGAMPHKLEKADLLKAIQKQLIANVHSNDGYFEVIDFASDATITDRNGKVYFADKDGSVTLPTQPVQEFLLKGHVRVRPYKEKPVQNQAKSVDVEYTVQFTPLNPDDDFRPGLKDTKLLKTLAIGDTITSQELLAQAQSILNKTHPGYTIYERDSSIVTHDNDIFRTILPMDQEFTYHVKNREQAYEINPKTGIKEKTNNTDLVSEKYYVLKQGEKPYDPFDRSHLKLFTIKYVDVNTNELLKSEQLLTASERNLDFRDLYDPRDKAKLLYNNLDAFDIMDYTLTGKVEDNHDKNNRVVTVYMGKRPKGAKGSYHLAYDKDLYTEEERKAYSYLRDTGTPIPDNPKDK
# Streptococcus = experiment: Group A Streptococcus viability loss, dose response, counter-screen for streptokinase expression inhibitor project, luminescence, BacTiterGlo (AID 1915); type: functional, organism-based;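 also: potency for reduction of bacterial viability or growth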
# [15] = NIH-3T3 fibroblast cytotoxicity, dose response, cytotoxicity control, cell-based, fluorescence, Alamar Blue, secondary assay (AID 2327); type: functional;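 also: NIH-3T3 mouse fibroblasts cultured with fluconazole at 8 µg/mL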
# [16] = C. albicans growth with fluconazole, confirmation, fluorescence, retest (AID 2467); type: functional, cell-based
# [17] = biological target: T5, Heat shock factor protein 1 (Mus musculus, UniProt P38532); experiment: inhibition of MG132-induced HSE-luciferase signal, confirmation, cell-based, NIH3T3, luminescence, dose retest (AID 2382); type: functional;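 also: NIH3T3 fibroblasts with HSF1-driven luciferase reporter stressed by proteasome inhibitor MG132; luminescence from HSF1-driven luciferase expression after 8 hours of MG132 stress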
# T5 sequence (P38532 whole entry): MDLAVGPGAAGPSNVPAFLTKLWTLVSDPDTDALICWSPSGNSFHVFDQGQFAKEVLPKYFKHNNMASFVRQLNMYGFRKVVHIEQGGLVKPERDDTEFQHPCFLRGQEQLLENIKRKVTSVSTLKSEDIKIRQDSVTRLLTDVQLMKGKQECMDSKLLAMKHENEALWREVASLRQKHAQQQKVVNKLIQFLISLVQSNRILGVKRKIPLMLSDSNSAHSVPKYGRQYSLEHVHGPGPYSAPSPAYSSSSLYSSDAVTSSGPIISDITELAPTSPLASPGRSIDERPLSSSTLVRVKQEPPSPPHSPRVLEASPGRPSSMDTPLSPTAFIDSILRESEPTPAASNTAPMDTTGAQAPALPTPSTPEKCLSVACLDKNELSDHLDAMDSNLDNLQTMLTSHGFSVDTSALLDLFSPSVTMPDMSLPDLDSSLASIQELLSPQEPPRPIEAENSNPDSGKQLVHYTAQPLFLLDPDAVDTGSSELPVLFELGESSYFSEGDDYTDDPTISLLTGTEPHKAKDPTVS
structure (smiles),measurement,setting,value
CCC(Oc1ccc2c(c1)C(=O)CC(C)(C)O2)C(=O)NCCN1CCCCCC1 (stereo not given),IC50,[1],15.8 µM (active)
COc1ccc(NC(=O)CCS(=O)(=O)c2ccc3c(c2)CCN3C(C)=O)cc1,EC50,cells [2],> 350 µM (not active)
same,EC50,cells [3],> 350 µM (not active)
Cc1ccc(C(=O)N/N=C\c2ccc(-c3ccc(Cl)cc3)o2)cn1,CC50,[4],30 µM (active)
same,IC50,cells [5],> 50 µM (active)
same,IC50,H9c2,> 79 µM (inactive)
CC1CCN(Cc2nc(-c3ccccc3)no2)CC1,EC50,[6],0.272 µM (active)
same,EC50,[7],< 0.1 µM (active)
same,EC50,H4,25.8 µM (active)
C[C@@H]1CN([C@@H](C)CO)C(=O)c2c(c3ccccc3n2C)-c2ccccc2CO[C@H]1CN(C)S(=O)(=O)c1cccc(F)c1,AC50,Paired box protein Pax-8,13.7 µM (active)
same,AC50,[8],46.4 µM (active)
CSCC[C@@H](C(=O)NCCCCCCCCCCC(=O)N1CCN(C(=O)OC(C)(C)C)CC1)n1cc(CCO)nn1,IC50,[1],14.5 µM (active)
Cc1c(CCC(=O)O)c(=O)oc2cc(OCc3ccccc3Br)ccc12,IC50,[9],10.6 µM (active)
CN(/N=C/c1ccc([N+](=O)[O-])o1)c1ccccc1,EC50,[10],665 nM (active)
same,EC50,[11],> 60 µM (not active)
same,IC50,[1],12.9 µM (active)
Clc1ccc(OCCOCCN2CCc3ccccc3C2)c(Cl)c1,CC50,[4],> 40 µM (active)
same,IC50,cells [5],18.6 µM (active)
CCC1Oc2ccccc2N(CC(=O)Nc2ccccc2OC)C1=O (stereo not given),EC50,cells [2],> 350 µM (not active)
same,EC50,cells [3],> 350 µM (not active)
Cc1ccc(NC(=O)CCNC(=O)c2ccc([N+](=O)[O-])cc2)cc1C,IC50,Fatty acid synthase [12],9.54 µM (active)
same,IC50,Fatty acid synthase [13],9.29 µM (active)
O/N=C1/C2C3CC4C5C3C1C5C1(OCCO1)C42 (stereo not given),EC50,cells [2],> 350 µM (not active)
same,EC50,cells [3],> 350 µM (not active)
CC(C)c1ccc(N(C(=O)c2csnn2)C(C(=O)NC(C)(C)C)c2ccncc2)cc1 (stereo not given),EC50,[6],5.54 µM (active)
same,EC50,[7],> 120 µM (not active)
same,EC50,H4,22.6 µM (inconclusive)
O=C(COC(=O)c1cc([N+](=O)[O-])ccc1N1CCOCC1)Nc1cccc(F)c1,IC50,Fatty acid synthase [12],1.1 µM (active)
same,IC50,Fatty acid synthase [13],0.917 µM (active)
Cc1cc(C)c(C#N)c(SC[S+]([O-])Cc2ccc(Cl)cc2)n1 (stereo not given),IC50,Fatty acid synthase [12],5.88 µM (active)
same,IC50,Fatty acid synthase [13],5.54 µM (active)
CC(NC(=O)c1cccc(OC2CCN(C(=O)C3CC3)CC2)c1)c1ccc(F)cc1 (stereo not given),IC50,[1],17.4 µM (active)
CC(/C=C1\SC(=S)N(NC(=O)c2ccncc2)C1=O)=C\c1ccccc1,IC50,[1],14.5 µM (active)
OCCC#Cc1ccc(CN2CCN(Cc3ccccc3)C(CCO)C2)cc1 (stereo not given),EC50,cells [2],> 350 µM (not active)
same,EC50,cells [3],> 350 µM (not active)
C/C(=N\NC(=O)c1cc(Br)ccc1O)c1cccc(NC(=O)c2ccccc2F)c1,EC50,[14],3.04 µM (active)
same,EC50,Streptokinase A,> 150 µM (not active)
same,EC50,Streptococcus,74 µM (active)
same,IC50,[9],2.94 µM (active)
O=C(O)CCCCCN1C(=O)/C(=C/c2nc3ccccc3[nH]2)SC1=S,EC50,[15],> 150 µM (inactive)
same,EC50,[16],5.71 µM (active)
same,IC50,[9],6.09 µM (active)
O=C(Nc1ccc(NC(=O)C2CC2)nc1)c1cccc(F)c1,EC50,[6],13.1 µM (active)
same,EC50,[7],11.2 µM (active)
same,EC50,H4,> 120 µM (not active)
NC1=C(c2nc3ccccc3s2)C(=O)CN1Cc1ccccc1,EC50,[6],> 120 µM (not active)
same,EC50,[7],92 µM (active)
same,EC50,H4,> 120 µM (not active)
O=C(O)/C=C\C(=O)Nc1ccccc1C#Cc1ccc(Br)cc1,EC50,[6],114 µM (active)
same,EC50,[7],19.7 µM (active)
same,EC50,H4,7.95 µM (active)
Cc1ccc(-c2csc(C3=C(N)N(NC(=O)c4ccco4)CC3=O)n2)cc1,IC50,[9],12.9 µM (active)
Clc1cccc(Cl)c1Cn1nnc(N2CCCC2)n1,EC50,[6],12 µM (active)
same,EC50,[7],13.8 µM (active)
same,EC50,H4,20.3 µM (active)
Nc1c(C(=O)OC2CCCCC2)c2nc3ccccc3nc2n1CC1CCCO1 (stereo not given),IC50,[1],13.2 µM (active)
O=C(CSc1ccc([N+](=O)[O-])cc1)NCC1CCCCC1,IC50,Fatty acid synthase [12],8.2 µM (active)
same,IC50,Fatty acid synthase [13],11.9 µM (active)
CCS(=O)(=O)C1=NN2C(=N)/C(=C\c3ccc(OS(=O)(=O)c4ccccc4)cc3)C(=O)N=C2S1,IC50,[1],6.95 µM (active)
N#Cc1c(/N=C/c2cc(Br)cs2)sc2c1CCC2,EC50,[6],> 120 µM (not active)
same,EC50,[7],33.6 µM (active)
same,EC50,H4,11.2 µM (active)
CC1(C)Cc2c(C#N)c(SCCC#N)nc(N3CCOCC3)c2CO1,EC50,cells [2],> 350 µM (not active)
same,EC50,[17],> 195 µM (not active)
same,EC50,cells [3],> 350 µM (not active)
COc1ccc(-c2cc3c(=O)n(CC(=O)NCc4ccc(F)cc4)ncn3n2)cc1,EC50,[6],1.33 µM (active)
same,EC50,[7],0.124 µM (active)
O=C(Cn1cc([N+](=O)[O-])ccc1=O)NCC1COc2ccccc2O1 (stereo not given),IC50,Fatty acid synthase [12],10.1 µM (active)
same,IC50,Fatty acid synthase [13],11.5 µM (active)
O=C(Nc1ccc(C(=O)O)cc1)/C(=C\c1ccc([N+](=O)[O-])cc1)NC(=O)c1ccc(Br)cc1,IC50,Fatty acid synthase [12],2.05 µM (active)
same,IC50,Fatty acid synthase [13],1.21 µM (active)
CCN(CC)CCCn1c2c(c(SCC(=O)N3CCc4ccccc43)nc1=O)CCC2,IC50,[1],10.9 µM (active)
CN1c2ccc(C3=CCCCC3)cc2[C@H]2[C@H](CCN2C(=O)NC2CCCCC2)[C@@H]1CO,AC50,Paired box protein Pax-8,12.3 µM (active)
same,AC50,[8],> 70 µM (inactive)
O=C(CSc1nnc(COc2ccccc2)n1Cc1ccco1)NCc1ccco1,IC50,[9],7.21 µM (active)
